In US8367361B2, “Methods using O6-alkylguanine-DNA alkytransferase” (Ecole Polytechnique Federale de Lausanne, priority 2001, dated 2013):

Tests used:
hAGT = target: T1, hAGT (Homo sapiens, UniProt P16455); conditions: cited from earlier work
T1 sequence (P16455 1-207): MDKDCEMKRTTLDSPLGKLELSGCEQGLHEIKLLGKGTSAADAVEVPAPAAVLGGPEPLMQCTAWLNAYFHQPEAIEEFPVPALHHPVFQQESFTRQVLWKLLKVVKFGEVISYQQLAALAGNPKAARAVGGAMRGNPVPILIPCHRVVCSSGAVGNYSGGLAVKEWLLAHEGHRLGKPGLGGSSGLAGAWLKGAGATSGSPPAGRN

[1] = target: T2, endogenous hAGT in human cells (HEK 293) (Homo sapiens, UniProt P16455); test: Fluorescence labelling of endogenous hAGT in HEK 293 cells, confocal microscopy; format: cell-based; conditions: HEK 293 cells preincubated overnight with 1 μM O6-benzylguanine before BG-AcFc
T2 construct: endogenous hAGT in human cells (HEK 293); endogenous in cells; host or cells: HEK 293
T2 sequence (P16455 1-207): T1 sequence (P16455 1-207)
Source text: (C) is an overlay of the images obtained from fluorescence and light microscopy.
Images were then taken with a confocal fluorescence microscope (Ext. 492 nm; Em. 510 nm). […] This should inactivate the endogenous hAGT and therefore prevent the accumulation of the fluorescence in the nucleus. […] The substrate's emission wavelength is 519 nm (excitation at 237, 323 and 490 nm respectively).

Nc1nc(OCc2ccccc2)c2nc[nH]c2n1 [O^6-benzylguanine]
second order rate constant of reaction with hAGT (hAGT): approximately 10^3 sec^−1 M^−1
accumulation of BG-AcFc fluorescence in the nucleus after preincubation [1]: no accumulation of fluorescence in the nucleus was observed
